Entries after “also recorded” stand apart in the source; their conditions may differ.
What was measured:
[1] = tested on: mouse extensor digitorum longus muscles; experiment: Isolated mouse muscle contraction study
Procedure: FIG. 4 is a schematic diagram of a validated isolated mouse muscle contraction study. Muscles were anchored at one end to the chamber floor and connected at the other end to a force transducer. After establishing a baseline response to the electrical field stimulation, HD was added to the buffer at concentrations ranging from 0.01% w/w to 1% w/w, and the impact on muscle contractile force was recorded over time at the frequency of 150 Hz. Additionally, muscles were subjected to varying frequencies of electrical stimulation to evaluate the frequency-dependent effects of HD.
This subsequent study was aimed to elucidate the specific effects of HD on isolated muscle tissue from mice, to quantify its potential use as a muscle relaxant. The study's design allowed for the controlled assessment of muscle contractility in a physiological buffer, minimizing external variables present in in vivo models. Muscle Isolation: The mouse extensor digitorum longus muscles were carefully dissected and mounted in a tissue bath super-fused with oxygenated physiological buffer, ensuring tissue viability throughout the experiment (FIG. 4). Baseline Measurement: Initial contractile responses were established via electrical stimulation at various frequencies, setting a comparative baseline for subsequent HD application effects. HD Application: Differing concentrations of HD (ranging from 0.01% to 1%) were introduced to the buffer. The muscle's contractile force (amplitude, which is the maximum contractile force) was determined to assess HD's concentration-dependent effects at a fixed frequency of 150 Hz (FIG. 6). Stimulation Frequency Adjustment: To explore the frequency-dependent nature of HD's action, muscles underwent varied frequencies of electrical stimulation at a fixed concentration of 0.5% of HD. This protocol aimed to simulate conditions of sporadic muscle spasms.

[2] = tested on: hind limb muscle; experiment: Rat hind limb muscle twitch study; type: in vivo, Sprague-Dawley rats
Procedure: FIG. 1 is a schematic diagram of a validated muscle twitch experimental set-up in the present disclosure. Here anesthetized Sprague-Dawley rats were prepared for muscle contraction assessment of their hindlimbs. The hind limbs were shaved and secured at the knee and ankle joints to prevent movement. The distal tendon of the targeted muscle was connected to a high-sensitivity force transducer to measure contractile force with precision. Electrical stimulation was delivered via electrodes positioned on the sciatic nerve to evoke muscle contractions. Vehicle (control study) or 5% w/w of HD was topically applied to the dermal area corresponding to the muscle group under study, ensuring proximity for local diffusion and effect.
A study was performed to evaluate the effects of HD on muscle contractility using a validated in vivo rat model. The experimental setup was meticulously designed to measure the contractile force of the hind limb muscle in response to electrical stimulation of the sciatic nerve, providing a quantitative assessment of muscle relaxation and contraction dynamics in the presence of HD. Anesthetized Sprague-Dawley rats were used for this study, ensuring minimal variability in response to HD application. Hind limbs were shaved and then immobilized at the knee and ankle joints to isolate the effect of the targeted muscle group. The distal tendon of the targeted muscle was connected to a high-sensitivity force transducer for accurate measurement of contractile force. An electrical stimulation was applied via electrodes strategically placed on the sciatic nerve, designed to evoke muscle contractions with controlled frequency to determine amplitude, and duration parameters. A specific concentration of 5% w/w of HD in lubricating lotion, prepared on the same day, was topically applied to the skin overlaying the muscle group under study and the control group received a vehicle (lubricating lotion) treatment under identical conditions.

[3] = tested on: hairless mice; experiment: Rotarod performance study in hairless mice; type: in vivo; settings: 5% w/w HD topical
Procedure: FIG. 7 is an illustration of a Rota Rod apparatus in the present disclosure. Once the mice were trained, the rod was rotated at a constant speed of 20 rpm. Then the mice were placed on the rotating rod and length of time they could stay on the rotating rod was measured in seconds.
The Rotarod study was to investigate the skeletal muscle relaxant effects of HD, specifically its impact on motor coordination and balance in hairless mice. The study was structured to assess both the kinetics of HD's effect over time and its efficacy in inducing muscle relaxation. Efficacy of HD was determined post-treatment at intervals of 15, 30, 60, 75, 90 minutes, and another to evaluate the efficacy, particularly noting the peak effect at 30 minutes post-application. Control and Treatment Groups: Each stage included a control group receiving vehicle (Aloe Vera Gel) and a test group treated with HD, 5% w/w HD (0.5 g) in the vehicle (9.5 g Aloe Vera Gel), prepared right before the study. The topical treatment was applied to the thighs of all four limbs for each mouse.

SMILES: CCCCC(O)CO (stereo not shown) [HD, 1,2-hexanediol]
- inhibitory effect on muscle contraction ([1]; 0.01% HD in buffer, 150 Hz): No significant inhibitory effect; also recorded: minimal effects
- reduction in contractile force ([1]; 0.1% HD in buffer, 150 Hz, vs vehicle controls): ~44%
- frequency-dependent decrease in torque generation (force-frequency relationship) ([1]; 0.5% HD, varied stimulus frequencies, vs vehicle, n=5): inhibition is more complete at higher frequencies of stimulation; also recorded: more significant inhibitory effect
- duration of muscle contraction ([2]; 5% w/w HD topical vs vehicle, p<0.05): statistically significant reduction
- mean percentage decline in force output from initial peak contraction ([2]; 5% w/w HD topical, compared to vehicle group): quantitatively significant
- ability to maintain tetanic contraction throughout the stimulus period ([2]; 5% w/w HD topical, electrical stimulation at 150 Hz): unable to maintain tetanic contraction; also recorded: failing to maintain tetanic tension
- recovery of mice from the muscle relaxant effect (safety) [3]: all mice recovered
- time spent on Rota Rod ([3]; 30 and 60 minutes post treatment, 20 rpm, vehicle 60 seconds): significant decrease
- recovery from the muscle relaxant effect ([3]; by 75 minutes): recovery trend
- time of most notable muscle relaxant activity post-treatment ([3]; preliminary experiments (data not shown)): 30 min

Source: US20250186364A1, “COMBINATION OF ANTISPASMODIC AND ANESTHETIC AGENTS FOR TOPICAL PRODUCTS AND THEIR METHOD OF USE” (priority 2023, published 2025)
